Structures are written as SMILES. Read-outs that look alike come from different tables or passages of the source. Where only a bound is given, the exact number is not on record here.

We go through four compounds from paper PMC10047490, “Novel Generation of FAP Inhibitor-Based Homodimers for Improved Application in Radiotheranostics” (Cancers, 2023).

In one assay the test system is FAP. Conditions: different assay conditions; cited from earlier work.
Assay [1] has as its target T1, rhFAP (recombinant human fibroblast activation protein) (Homo sapiens, UniProt Q12884).
T1 construct: made in house
T1 sequence (Q12884 1-760): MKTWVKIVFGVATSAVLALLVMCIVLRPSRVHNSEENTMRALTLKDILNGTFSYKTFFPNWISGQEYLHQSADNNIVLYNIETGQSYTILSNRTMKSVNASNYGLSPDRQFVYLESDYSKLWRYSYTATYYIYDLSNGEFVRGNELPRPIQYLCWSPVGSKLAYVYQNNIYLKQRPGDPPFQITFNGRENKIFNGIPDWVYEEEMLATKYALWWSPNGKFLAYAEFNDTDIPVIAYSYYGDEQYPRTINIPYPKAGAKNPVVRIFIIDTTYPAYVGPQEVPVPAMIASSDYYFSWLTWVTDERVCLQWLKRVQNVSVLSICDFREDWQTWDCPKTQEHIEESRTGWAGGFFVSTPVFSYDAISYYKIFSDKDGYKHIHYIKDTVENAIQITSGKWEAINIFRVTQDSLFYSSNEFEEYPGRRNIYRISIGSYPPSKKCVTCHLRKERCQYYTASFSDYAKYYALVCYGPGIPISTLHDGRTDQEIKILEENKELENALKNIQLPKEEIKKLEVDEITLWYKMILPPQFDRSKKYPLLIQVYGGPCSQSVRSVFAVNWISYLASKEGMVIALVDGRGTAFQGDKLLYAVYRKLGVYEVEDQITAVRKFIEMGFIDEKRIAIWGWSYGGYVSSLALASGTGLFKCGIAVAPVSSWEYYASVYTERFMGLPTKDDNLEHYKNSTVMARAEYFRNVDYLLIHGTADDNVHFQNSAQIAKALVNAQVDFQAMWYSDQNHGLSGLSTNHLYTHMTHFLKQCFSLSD
In words: In vitro inhibition assay (IC50), FAP, substrate Z-Gly-Pro-AMC. The assay is classed as biochemical. Conditions: for IC50 values for FAP (in words): summary statement on Table 3. As for the experimental part:
(§1) rhFAP (recombinant human fibroblast activation protein), DPP8 (dipeptidyl peptidase VIII) and DPP9 (dipeptidyl peptidase IX) were expressed and purified as described previously. DPP4 (dipeptidyl peptidase IV) was purified from human seminal plasma as described previously. Human recombinant PREP (prolylendopeptidase) was expressed and purified as described before.
(§2) IC50 measurements for FAP and PREP were carried out as described before. […] For PREP, N-succinyl-Gly-Pro-AMC (Bachem) at a final concentration of 250 µM at pH 7.4 in 0.1 M K-phosphate, 1 mM EDTA, 1 mM DTT and 1 mg/mL BSA buffer was used.
(§3) All enzymatic activities were determined kinetically for 15 min at 37 °C by measuring initial velocities of AMC release (λex = 380 nm and λem = 465 nm) or pNA release (405 nm) from the substrates mentioned above with an Infinite 200 plate reader from Tecan Group Ltd. (Männedorf, Switzerland). The Magellan software was used to process the data, and data fitting was performed using a non-linear fitting model in Grafit 7.4. All IC50 measurements were carried out in triplicate with at least eight different inhibitor concentrations tested.

The target in assay [2] is T2, Human recombinant PREP (prolylendopeptidase) (Homo sapiens, UniProt P48147).
T2 construct: made in house
T2 sequence (P48147 1-710): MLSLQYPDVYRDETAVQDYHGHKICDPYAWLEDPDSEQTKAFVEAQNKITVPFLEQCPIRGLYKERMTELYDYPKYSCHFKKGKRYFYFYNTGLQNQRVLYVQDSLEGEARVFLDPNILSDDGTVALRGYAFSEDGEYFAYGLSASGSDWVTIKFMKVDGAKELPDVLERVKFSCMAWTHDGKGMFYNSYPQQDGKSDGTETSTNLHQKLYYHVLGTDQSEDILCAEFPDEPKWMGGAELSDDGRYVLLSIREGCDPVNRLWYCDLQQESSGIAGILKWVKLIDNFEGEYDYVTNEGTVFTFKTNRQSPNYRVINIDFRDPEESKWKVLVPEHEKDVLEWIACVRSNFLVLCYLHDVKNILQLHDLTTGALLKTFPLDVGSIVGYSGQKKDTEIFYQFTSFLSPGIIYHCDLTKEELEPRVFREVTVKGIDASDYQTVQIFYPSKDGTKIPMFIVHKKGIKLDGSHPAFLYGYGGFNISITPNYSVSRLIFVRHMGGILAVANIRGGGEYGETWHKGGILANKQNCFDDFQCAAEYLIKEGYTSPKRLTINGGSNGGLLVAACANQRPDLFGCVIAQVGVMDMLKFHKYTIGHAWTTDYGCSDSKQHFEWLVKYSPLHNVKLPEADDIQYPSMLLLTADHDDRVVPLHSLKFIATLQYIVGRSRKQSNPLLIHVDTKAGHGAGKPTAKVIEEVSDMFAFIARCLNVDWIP
Kind of assay: In vitro inhibition assay (IC50), PREP, substrate N-succinyl-Gly-Pro-AMC. The assay is classed as biochemical. Conditions: for IC50: 250 µM N-succinyl-Gly-Pro-AMC, pH 7.4, 37 °C; for SI(PREP/FAP): selectivity index = IC50(PREP)/IC50(FAP). How it is done:
as §1, §2, §3

Assay [3] deals with T3, DPP4 (dipeptidyl peptidase IV) purified from human seminal plasma (Homo sapiens, UniProt P27487).
T3 construct: DPP4 (dipeptidyl peptidase IV) was purified from human seminal plasma; from tissue; host or cells: human seminal plasma
In words: In vitro inhibition assay (IC50), DPP4, substrate Ala-Pro-pNA. Type of assay: biochemical. Conditions: for IC50: 25 µM Ala-Pro-pNA, pH 7.4, 37 °C; for SI(DPP4/FAP): selectivity index = IC50(DPP4)/IC50(FAP). As for the experimental part: as §1, §3

Assay [4] concerns the target T4, DPP8 (dipeptidyl peptidase VIII) (Homo sapiens, UniProt Q6V1X1).
T4 construct: made in house
In words: In vitro inhibition assay (IC50), DPP8, substrate Ala-Pro-pNA. The assay is classed as biochemical. Conditions: for IC50: 300 µM Ala-Pro-pNA, pH 7.4, 37 °C. How it is done: as §1, §3

Assay [5] has as its target T5, DPP9 (dipeptidyl peptidase IX) (Homo sapiens, UniProt Q86TI2).
T5 construct: made in house
Kind of assay: In vitro inhibition assay (IC50), DPP9, substrate Ala-Pro-pNA. Type of assay: biochemical. Conditions: for IC50: 150 µM Ala-Pro-pNA, pH 7.4, 37 °C; for SI(DPP9/FAP): selectivity index = IC50(DPP9)/IC50(FAP). As for the experimental part: as §1, §3

Assay [6] addresses T4, DPP8 (dipeptidyl peptidase VIII). Conditions: from previous works; cited from earlier work.

T4 sequence (Q6V1X1 whole entry, species assumed): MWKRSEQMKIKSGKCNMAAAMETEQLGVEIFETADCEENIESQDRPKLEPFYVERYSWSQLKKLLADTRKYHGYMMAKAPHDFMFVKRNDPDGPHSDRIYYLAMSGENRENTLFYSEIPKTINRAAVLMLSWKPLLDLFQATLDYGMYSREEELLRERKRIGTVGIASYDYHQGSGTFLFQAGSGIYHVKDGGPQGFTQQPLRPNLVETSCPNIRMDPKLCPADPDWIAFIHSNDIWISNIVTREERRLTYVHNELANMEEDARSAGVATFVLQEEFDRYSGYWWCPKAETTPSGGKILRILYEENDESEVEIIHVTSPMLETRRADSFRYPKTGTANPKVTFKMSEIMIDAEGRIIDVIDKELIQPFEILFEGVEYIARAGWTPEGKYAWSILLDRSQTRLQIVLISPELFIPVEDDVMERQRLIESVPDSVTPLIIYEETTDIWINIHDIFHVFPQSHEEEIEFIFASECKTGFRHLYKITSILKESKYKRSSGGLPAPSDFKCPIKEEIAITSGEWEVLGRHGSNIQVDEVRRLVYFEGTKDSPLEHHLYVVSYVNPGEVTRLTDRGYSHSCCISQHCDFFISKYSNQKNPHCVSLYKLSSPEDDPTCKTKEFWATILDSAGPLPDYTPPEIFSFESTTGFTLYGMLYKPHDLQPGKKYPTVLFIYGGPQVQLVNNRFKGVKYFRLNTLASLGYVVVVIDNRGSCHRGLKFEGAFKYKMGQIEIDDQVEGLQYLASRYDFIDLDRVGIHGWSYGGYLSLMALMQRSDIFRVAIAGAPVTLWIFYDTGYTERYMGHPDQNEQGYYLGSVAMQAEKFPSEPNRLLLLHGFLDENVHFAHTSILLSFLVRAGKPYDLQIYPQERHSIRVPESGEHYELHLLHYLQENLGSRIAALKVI
T3 sequence (P27487 whole entry): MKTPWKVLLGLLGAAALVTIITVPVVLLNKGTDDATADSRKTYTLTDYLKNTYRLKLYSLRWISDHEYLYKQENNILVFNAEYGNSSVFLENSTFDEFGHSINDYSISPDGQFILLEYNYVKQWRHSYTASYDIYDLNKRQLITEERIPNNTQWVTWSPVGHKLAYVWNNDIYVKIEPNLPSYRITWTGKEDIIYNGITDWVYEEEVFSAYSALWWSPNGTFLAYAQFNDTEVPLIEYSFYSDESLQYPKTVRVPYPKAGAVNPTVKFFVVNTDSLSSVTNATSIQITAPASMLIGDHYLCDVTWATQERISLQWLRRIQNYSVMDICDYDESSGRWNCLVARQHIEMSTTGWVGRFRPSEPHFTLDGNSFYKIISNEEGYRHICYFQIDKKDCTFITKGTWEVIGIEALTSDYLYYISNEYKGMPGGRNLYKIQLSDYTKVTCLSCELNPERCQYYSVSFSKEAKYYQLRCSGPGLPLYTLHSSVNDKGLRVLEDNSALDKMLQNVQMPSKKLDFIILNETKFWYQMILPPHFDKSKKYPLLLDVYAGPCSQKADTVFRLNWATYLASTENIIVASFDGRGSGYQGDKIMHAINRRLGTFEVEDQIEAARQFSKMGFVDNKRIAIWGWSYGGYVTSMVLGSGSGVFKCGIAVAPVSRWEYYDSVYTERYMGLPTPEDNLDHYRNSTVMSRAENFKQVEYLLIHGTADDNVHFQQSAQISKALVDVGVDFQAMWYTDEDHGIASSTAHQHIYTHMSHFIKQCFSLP
T5 sequence (Q86TI2 whole entry, species assumed): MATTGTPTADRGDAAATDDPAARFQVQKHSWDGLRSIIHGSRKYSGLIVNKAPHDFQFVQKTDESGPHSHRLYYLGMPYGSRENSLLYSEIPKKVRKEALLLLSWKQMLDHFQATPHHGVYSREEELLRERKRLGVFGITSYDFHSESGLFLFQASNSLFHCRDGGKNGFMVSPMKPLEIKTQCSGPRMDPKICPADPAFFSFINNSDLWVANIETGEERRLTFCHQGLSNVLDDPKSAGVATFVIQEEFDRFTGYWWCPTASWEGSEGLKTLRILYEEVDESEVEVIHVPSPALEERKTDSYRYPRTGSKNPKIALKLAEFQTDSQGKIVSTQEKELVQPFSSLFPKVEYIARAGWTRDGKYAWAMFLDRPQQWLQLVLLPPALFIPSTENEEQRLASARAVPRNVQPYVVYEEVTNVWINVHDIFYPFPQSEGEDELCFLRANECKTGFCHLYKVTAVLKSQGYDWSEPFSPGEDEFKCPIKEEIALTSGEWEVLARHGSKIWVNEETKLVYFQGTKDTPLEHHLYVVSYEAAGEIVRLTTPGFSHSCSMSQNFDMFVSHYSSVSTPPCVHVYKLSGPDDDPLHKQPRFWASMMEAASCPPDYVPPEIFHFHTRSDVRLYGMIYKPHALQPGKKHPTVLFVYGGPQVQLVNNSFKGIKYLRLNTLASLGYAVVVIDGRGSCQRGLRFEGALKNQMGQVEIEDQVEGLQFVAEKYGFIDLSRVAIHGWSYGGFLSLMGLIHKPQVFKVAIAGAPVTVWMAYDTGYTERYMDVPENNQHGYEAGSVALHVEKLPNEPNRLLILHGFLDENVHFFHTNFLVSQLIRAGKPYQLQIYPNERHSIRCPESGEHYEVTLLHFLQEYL

Consider `N#C[C@@H]1CC(F)(F)CN1C(=O)CNC(=O)c1ccnc2c(NC(=O)CCC(=O)NCCCC[C@H](NC(=O)CCC(=O)Nc3cccc4c(C(=O)NCC(=O)N5CC(F)(F)C[C@H]5C#N)ccnc34)C(=O)NCCNC(=O)CC[C@H](C(=O)O)N3CCN(CC(=O)O)CCN(CC(=O)O)CCN(CC(=O)O)CC3)cccc12` [BiOncoFAP-DOTAGA], for which the half-maximal inhibitory concentration (IC50) in the assay on FAP is 0.17 nM.

As for `N#C[C@@H]1CC(F)(F)CN1C(=O)CNC(=O)c1ccnc2ccc(OCCCCNC(=O)CC[C@H](NC(=O)CN3CCN(CC(=O)O)CCN(CC(=O)O)CCN(CC(=O)O)CC3)C(=O)NCCCCOc3ccc4nccc(C(=O)NCC(=O)N5CC(F)(F)C[C@H]5C#N)c4c3)cc12` [DO3A.Glu.(FAPi)2, 2,2′,2″-(10-(2-(((S)-1,5-bis((4-((4-((2-((S)-2-Cyano-4,4-difluoropyrrolidin-1-yl)-2-oxoethyl)-carbamoyl)quinolin-6-yl)oxy)butyl)amino)-1,5-dioxopentan-2-yl)amino)-2-oxoethyl)-1,4,7,10-tetraazacyclododecane-1,4,7-triyl)triacetic acid], in assay [1], the “IC50 values for FAP (in words)” value is recorded as “subnanomolar”. Further, in assay [2], the IC50 came out at 1000 ± 140 nM and the “SI(PREP/FAP)” value is 1667. Further, in assay [3], the midpoint of inhibition, the IC50, lay at 540 ± 60 nM and the “SI(DPP4/FAP)” value stood at 900. Further, half-maximal inhibition in assay [4] (IC50) was put at 1030 ± 180 nM. Further, the “SI(DPP8/FAP)” value in assay [4] (selectivity index = IC50(DPP8)/IC50(FAP)) stood at 1717. Further, in assay [5], the midpoint of inhibition, the IC50, lay at 950 ± 110 nM and the “SI(DPP9/FAP)” value amounted to 1583.

Consider `N#C[C@@H]1CC(F)(F)CN1C(=O)CNC(=O)c1ccnc2ccc(OCCCCNC(=O)CC[C@H](NC(=O)CCC(C(=O)O)N3CCN(CC(=O)O)CCN(CC(=O)O)CCN(CC(=O)O)CC3)C(=O)NCCCCOc3ccc4nccc(C(=O)NCC(=O)N5CC(F)(F)C[C@H]5C#N)c4c3)cc12` (stereo partly drawn) [DOTAGA.Glu.(FAPi)2, 2,2′,2″-(10-(4-(((S)-1,5-bis((4-((4-((2-((S)-2-Cyano-4,4-difluoropyrrolidin-1-yl)-2-oxoethyl)-carbamoyl)quinolin-6-yl)oxy)butyl)amino)-1,5-dioxopentan-2-yl)amino)-1-carboxy-4-oxobutyl)-1,4,7,10-tetraazacyclododecane-1,4,7-triyl)triacetic acid], for which the IC50 in assay [1] (50 µM Z-Gly-Pro-AMC, pH 8.0, 37 °C, triplicate) came to 0.26 ± 0.04 nM; in assay [2], 590 ± 100 nM; in assay [3], 1190 ± 80 nM; in assay [4] it was 29 ± 4 nM; in assay [5], 83 ± 1.5 nM. For the same compound, in assay [1], the “IC50 values for FAP (in words)” value is given as “subnanomolar”. Moreover, the “SI(PREP/FAP)” value in assay [2] was 2269. Moreover, in assay [3], the “SI(DPP4/FAP)” value worked out at 4577. Besides, in assay [5], the “SI(DPP9/FAP)” value was 319.

Take `N#C[C@@H]1CC(F)(F)CN1C(=O)CNC(=O)c1ccnc2ccccc12` [UAMC-1110]: the IC50 in assay [6] was greater than 10000 nM.
